Experimental data published in US10683290B2, “Tricyclic compounds as anticancer agents” (BRISTOL-MYERS SQUIBB COMPANY, priority 2015, dated 2020).

What follows are compounds tested against BRD4 (Homo sapiens, UniProt O60885) (assay: biochemical). Details: one of the FRET assays described; read-out: FRET BRD4 IC50.
Format: binding

| SMILES | IC50 [nM] |
| --- | --- |
| [2H]C([2H])([2H])c1nnn(C)c1-c1ccc2c3ncc(C(C)(C)O)cc3n(C(c3cc(C)on3)C3CCOCC3)c2c1 (single isomer, unassigned) [Example 74, 2-{5-[(5-methyl-1,2-oxazol-3-yl)(oxan-4-yl)methyl]-7-[4-(^2H3)methyl-1-methyl-1H-1,2,3-triazol-5-yl]-5H-pyrido[3,2-b]indol-3-yl}propan-2-ol] | < 1500 |
| [2H]C([2H])([2H])c1nnn(C)c1-c1cc2c(cc1F)c1ncc(C(C)(C)O)cc1n2C(c1cc(C)ccn1)C1CCOCC1 (single isomer, unassigned) [Example 53, 2-{8-fluoro-7-[4-(^2H3)methyl-1-methyl-1H-1,2,3-triazol-5-yl]-5-[(4-methylpyridin-2-yl)(oxan-4-yl)methyl]-5H-pyrido[3,2-b]indol-3-yl}propan-2-ol] | < 1500 |
| Cc1nnn(C)c1-c1ccc2c3ncc(C(C)(C)O)cc3n(C(CCC(F)(F)F)CCC(F)(F)F)c2c1 [Example 4, 2-[7-(dimethyl-1H-1,2,3-triazol-5-yl)-5-(1,1,1,7,7,7-hexafluoroheptan-4-yl)-5H-pyrido[3,2-b]indol-3-yl]propan-2-ol] | < 5 |
| [2H]C([2H])([2H])c1nnn(C)c1-c1cc2c(cc1F)c1ncc(C(C)(C)O)cc1n2C(c1cc(C)on1)C1CCOCC1 (stereo not shown) [Example 35, 2-{8-Fluoro-5-[(5-methyl-1,2-oxazol-3-yl)(oxan-4-yl)methyl]-7-[4-(^2H3)methyl-1-methyl-1H-1,2,3-triazol-5-yl]-5H-pyrido[3,2-b]indol-3-yl}propan-2-ol] | < 1500 |
| Cc1nnn(C)c1-c1cc(Cl)c2c3ncc(C(C)(C)O)cc3n([C@H](c3ccccc3)C3CCOCC3)c2c1 [Example 13, 2-[9-Chloro-7-(dimethyl-1H-1,2,3-triazol-5-yl)-5-[(S)-oxan-4-yl(phenyl)methyl]-5H-pyrido[3,2-b]indol-3-yl]propan-2-ol] | < 1 |
| [2H]C([2H])([2H])c1nnn(C)c1-c1cc2c(cc1Cl)c1ncc(C(C)(C)O)cc1n2C(CCC)c1ncccc1F (single isomer, unassigned) [Example 83, 2-{8-chloro-5-[1-(3-fluoropyridin-2-yl)butyl]-7-[4-(^2H3)methyl-1-methyl-1H-1,2,3-triazol-5-yl]-5H-pyrido[3,2-b]indol-3-yl}propan-2-ol] | < 5 |
| [2H]C([2H])([2H])c1nnn(C)c1-c1cc2c(cc1F)c1ncc(C(C)(C)O)cc1n2C(CCC)c1ncccc1F (single isomer, unassigned) [Example 39, 2-{8-fluoro-5-[1-(3-fluoropyridin-2-yl)butyl]-7-[4-(^2H3)methyl-1-methyl-1H-1,2,3-triazol-5-yl}-5H-pyrido[3,2-b]indol-3-yl]propan-2-ol] | < 5 |
| [2H]C([2H])([2H])c1nnn(C)c1-c1cc2c(cc1F)c1ncc(C(C)(C)O)cc1n2C(c1ncccc1C)C1CCOCC1 (single isomer, unassigned) [Example 43, 2-{8-fluoro-7-[4-(^2H3)methyl-1-methyl-1H-1,2,3-triazol-5-yl]-5-[(3-methylpyridin-2-yl)(oxan-4-yl)methyl}-5H-pyrido[3,2-b]indol-3-yl]propan-2-ol] | < 5 |
| [2H]C([2H])([2H])c1nnn(C)c1-c1cc2c(cc1Cl)c1ncc(C(C)(C)O)cc1n2C(c1ccccn1)C1CCOCC1 (single isomer, unassigned) [Example 80, 2-{8-chloro-7-[4-(^2H3)methyl-1-methyl-1H-1,2,3-triazol-5-yl]-5-[oxan-4-yl(pyridin-2-yl)methyl]-5H-pyrido[3,2-b]indol-3-yl}propan-2-ol] | < 1500 |
| Cc1nnn(C)c1-c1cc2c(cc1F)c1ncc(C(C)(O)C3CC3)cc1n2[C@H](c1ccccc1F)C1CCOCC1 (single isomer, unassigned) [Example 23] | < 5 |
| [2H]C([2H])([2H])c1nnn(C)c1-c1cc2c(cc1F)c1ncc(C(C)(C)O)cc1n2C(c1cc(C)ccn1)C1CCOCC1 (single isomer, unassigned) [Example 52, 2-{8-fluoro-7-[4-(^2H3)methyl-1-methyl-1H-1,2,3-triazol-5-yl]-5-[(4-methylpyridin-2-yl)(oxan-4-yl)methyl]-5H-pyrido[3,2-b]indol-3-yl}propan-2-ol] | < 5 |
| Cc1nnn(C)c1-c1ccc2c3ncc(C(C)(C)O)cc3n(C(CCC(F)(F)F)c3ccccn3)c2c1 (single isomer, unassigned) [Example 6, 2-[7-(dimethyl-1H-1,2,3-triazol-5-yl)-5-[4,4,4-trifluoro-1-(pyridin-2-yl)butyl]-5H-pyrido[3,2-b]indol-3-yl]propan-2-ol] | < 5 |
| Cc1noc(C)c1-c1ccc2c3ncc(C(C)(C)O)cc3n([C@H](c3ccccc3)C3CCOCC3)c2c1 [Example 14, 2-[7-(Dimethyl-1,2-oxazol-4-yl)-5-[(S)-oxan-4-yl(phenyl)methyl]-5H-pyrido[3,2-b]indol-3-yl]propan-2-ol] | < 5 |
| Cc1nnn(C)c1-c1cc2c(cc1F)c1ncc(C(C)(C)O)cc1n2C(c1ncccn1)C1CCOCC1 (single isomer, unassigned) [Example 55] | < 1500 |
| [2H]C([2H])([2H])c1nnn(C)c1-c1ccc2c3ncc(C(C)(C)O)cc3n(C(c3ncccc3F)C3CCOCC3)c2c1F (single isomer, unassigned) [Example 85, 2-{6-Fluoro-5-[(3-fluoropyridin-2-yl)(oxan-4-yl)methyl]-7-[4-(^2H3)methyl-1-methyl-1H-1,2,3-triazol-5-yl]-5H-pyrido[3,2-b]indol-3-yl}propan-2-ol] | < 5 |
| Cc1noc(C)c1-c1cc2c(cc1F)c1ncc(C(C)(C)O)cc1n2[C@H](c1ccccc1)C1CCOCC1 [Example 18, 2-[7-(dimethyl-1,2-oxazol-4-yl)-8-fluoro-5-[(S)-oxan-4-yl(phenyl)methyl]-5H-pyrido[3,2-b]indol-3-yl]propan-2-ol] | < 5 |
| Cc1nnn(C)c1-c1cc2c(cc1F)c1ncc(C(C)(C)O)cc1n2C(c1ncccn1)C1CCOCC1 (single isomer, unassigned) [Example 54] | < 5 |
| [2H]C([2H])([2H])c1nnn(C)c1-c1cc2c(cc1F)c1ncc(C(C)(C)O)cc1n2C(CCOC)c1ccccc1 (single isomer, unassigned) [Example 62, 2-[8-fluoro-5-(3-methoxy-1-phenylpropyl)-7-[4-(^2H3)methyl-1-methyl-1H-1,2,3-triazol-5-yl]-5H-pyrido[3,2-b]indol-3-yl]propan-2-ol] | < 1500 |
| [2H]C([2H])([2H])c1nnn(C)c1-c1cc2c(cc1Cl)c1ncc(C(C)(C)O)cc1n2C(c1cc(C)on1)C1CCOCC1 (single isomer, unassigned) [Example 79, 2-{8-chloro-5-[(5-methyl-1,2-oxazol-3-yl)(oxan-4-yl)methyl]-7-[4-(^2H3)methyl-1-methyl-1H-1,2,3-triazol-5-yl]-5H-pyrido[3,2-b]indol-3-yl}propan-2-ol] | < 1500 |
| [2H]C([2H])([2H])c1nnn(C)c1-c1cc2c(cc1F)c1ncc(C(C)(C)O)cc1n2C(c1ccc(C)cn1)C1CCOCC1 (single isomer, unassigned) [Example 57, 2-{8-fluoro-7-[4-(^2H3)methyl-1-methyl-1H-1,2,3-triazol-5-yl]-5-[(5-methylpyridin-2-yl)(oxan-4-yl)methyl]-5H-pyrido[3,2-b]indol-3-yl}propan-2-ol] | < 1500 |
| [2H]C([2H])([2H])c1nnn(C)c1-c1cc2c(cc1F)c1ncc(C(C)(C)O)cc1n2C(CC1COC1)c1ccccc1 (racemic) [Example 66, 2-{8-fluoro-7-[4-(^2H3)methyl-1-methyl-1H-1,2,3-triazol-5-yl]-5-[2-(oxetan-3-yl)-1-phenylethyl]-5H-pyrido[3,2-b]indol-3-yl}propan-2-ol] | < 1 |
| Cc1noc(C)c1-c1ccc2c3ncc(C(C)(C)O)cc3n([C@H](c3ccccc3)C3CCOCC3)c2c1F [Example 17, 2-[7-(Dimethyl-1,2-oxazol-4-yl)-6-fluoro-5-[(S)-oxan-4-yl(phenyl)methyl]-5H-pyrido[3,2-b]indol-3-yl]propan-2-ol] | < 5 |
| Cc1nnn(C)c1-c1cc2c(cc1F)c1ncc(C(C)(C)O)cc1n2[C@H](c1ccccc1F)C1CCOCC1 [Example 21, 2-[7-(Dimethyl-1H-1,2,3-triazol-5-yl)-8-fluoro-5-[(S)-(2-fluorophenyl)(oxan-4-yl)methyl]-5H-pyrido[3,2-b]indol-3-yl]propan-2-ol] | < 1 |
| [2H]C([2H])([2H])c1nnn(C)c1-c1cc2c(cc1F)c1ncc(C(C)(C)O)cc1n2C(c1ncccc1F)C1CCOCC1 (stereo not shown) [Example 30, 2-{8-Fluoro-5-[(3-fluoropyridin-2-yl)(oxan-4-yl)methyl]-7-[4-(^2H3)methyl-1-methyl-1H-1,2,3-triazol-5-yl]-5H-pyrido[3,2-b]indol-3-yl}propan-2-ol] | < 1 |
| [2H]C([2H])([2H])c1nnn(C)c1-c1cc2c(cc1F)c1ncc(C(C)(C)O)cc1n2C(c1ncccc1C)C1CCOCC1 (single isomer, unassigned) [Example 42, 2-{8-fluoro-7-[4-(^2H3)methyl-1-methyl-1H-1,2,3-triazol-5-yl]-5-[(3-methylpyridin-2-yl)(oxan-4-yl)methyl}-5H-pyrido[3,2-b]indol-3-yl]propan-2-ol] | < 5 |
| [2H]C([2H])([2H])c1nnn(C)c1-c1cc2c(cc1F)c1ncc(C(C)(C)O)cc1n2C(CCC)c1ccccn1 (single isomer, unassigned) [Example 48, 2-{8-fluoro-7-[4-(^2H3)methyl-1-methyl-1H-1,2,3-triazol-5-yl]-5-[1-(pyridin-2-yl)butyl]-5H-pyrido[3,2-b]indol-3-yl}propan-2-ol] | < 1500 |
| Cc1nnn(C)c1-c1cc2c(cc1F)c1ncc(C(C)(C)O)cc1n2C(c1ccc(F)cn1)C1CCOCC1 (single isomer, unassigned) [Example 70, 2-[7-(dimethyl-1H-1,2,3-triazol-5-yl)-8-fluoro-5-[(5-fluoropyridin-2-yl)(oxan-4-yl)methyl]-5H-pyrido[3,2-b]indol-3-yl]propan-2-ol] | < 5 |
| Cc1nnn(C)c1-c1cc2c(cc1F)c1ncc(C(C)(C)O)cc1n2[C@H](c1ccccc1)C1CCOCC1 [Example 19, 2-[7-(Dimethyl-1H-1,2,3-triazol-5-yl)-8-fluoro-5-[(S)-oxan-4-yl(phenyl)methyl]-5H-pyrido[3,2-b]indol-3-yl]propan-2-ol] | < 1500 |
